14 compounds from patent US4368199A, “Novel derivatives of 3,4,5-trimethoxy cinnamoyl piperazine, their salts, the process for preparing the same and their application in therapeutics” (Delalande S.A., priority 1980, dated 1983) can be followed below.

Data set [1] in a line: Acute toxicity in the mouse (MILLER and TAINTER method). The note with it: in vivo; for LD50: read-out: LD 50 (mouse). The protocol: The acute toxicity was assessed in accordance with the MILLER and TAINTER method (Proc. Sci. Exp. Biol. Med. 1944, 57, 261)
Another data set concerns dogs. As to the kind of experiment: Haemodynamic tests on dogs anaesthetized with sodic pentobarbital (arterial pressure, cardiac frequency, coronary flow, cardiac contractile force). The note with it: dog; for change in vivo at 0.625 mg/kg / change in vivo at 2.5 mg/kg: Canis lupus familiaris, iv. In kind it is in vivo. The protocol:
Tests were carried out on dogs anaesthetized with sodic pentobarbital (30 mg/kg/i.v.) and the compounds of formula (I) were administered intravenously. The activity on the cardiac contractile force was measured with a BRODIE and WALTON stress gauge fixed to the left ventricle.
The arterial pressure was measured at the femoral artery with a SANBORN pressure sensor.
The cardiac frequency was automatically counted by means of a cardiotachymeter from the pulse pressure wave.
The coronary flow was measured by means of an electromagnetic probe of the STATHAM or BIOTRONEX type at the coronary artery.

[2] abbreviates: 0.625 mg/kg/i.v., read-out: Increase of the cardiac contractile force.
Setting [3] is: 0.625 mg/kg/i.v., read-out: Increase of the coronary flow.
[4] abbreviates: 0.625 mg/kg/i.v., read-out: Variation of the average arterial pressure.
The mark [5] stands for this setting: 0.625 mg/kg/i.v., read-out: Variation of the cardiac frequency.
Setting [6] is: 2.5 mg/kg/i.v., read-out: Increase of the coronary flow.
The mark [7] stands for this setting: 2.5 mg/kg/i.v., read-out: Variation of the average arterial pressure.
Where [8] appears, read: 2.5 mg/kg/i.v., read-out: Variation of the cardiac frequency.
The mark [9] stands for this setting: 2.5 mg/kg/i.v., read-out: Increase of the cardiac contractile force.
The mark [10] stands for this setting: po, at 1000 mg/kg, read-out: LD 50 column: percentage in parentheses (p.o.).

Where a name gives a salt, the structure may show the parent alone. Read-outs that look alike come from different tables or passages of the source.

As to `COc1ccc(CN2CCN(C(=O)C=Cc3cc(OC)c(OC)c(OC)c3)CC2)cc1OC` [Compound 2], in data set [1] (iv), the LD50 worked out at 105 mg/kg. Also, the change in vivo at 0.625 mg/kg in the data set on dogs (setting [2]) was 71%; with dogs (setting [3]), 93%; in the data set on dogs (setting [4]), -12%; with dogs (setting [5]) it was 6%. The results for the change in vivo at 2.5 mg/kg with dogs (setting [6]), with dogs (setting [7]) and with dogs (setting [8]) were 76 to 398%, -25% and 8%, respectively. Moreover, the “Increase of the coronary flow: duration” value in the data set on dogs (0.625 mg/kg/i.v.) is reported as under 20 mn; with dogs (2.5 mg/kg/i.v.), over 30 mn. For the same compound, the “Variation of the cardiac frequency: duration” value in the data set with dogs (0.625 mg/kg/i.v.) is under 5 mn. In addition, the “Increase of the cardiac contractile force” value with dogs (2.5 mg/kg/i.v.) is on record as “+58 to”. In the data set with dogs (2.5 mg/kg/i.v.), the “Increase of the cardiac contractile force: duration” value is listed as over 308 mn.
With `COc1ccc(C(O)CN2CCN(C(=O)C=Cc3cc(OC)c(OC)c(OC)c3)CC2)c(OC)c1` (stereo not shown) [Compound 89], the LD50 in data set [1] (iv) was over 100 mg/kg. Also, the change in vivo at 2.5 mg/kg is 51% in the data set on dogs (setting [9]), -38% with dogs (setting [7]) and -10% in the data set on dogs (setting [8]). Besides, the “Variation of the average arterial pressure: duration” value in the data set with dogs (2.5 mg/kg/i.v.) is recorded as over 30 mn.
Regarding `COc1ccc(CC(O)CN2CCN(C(=O)C=Cc3cc(OC)c(OC)c(OC)c3)CC2)cc1OC` (stereo not shown) [Compound 102, 3-[4-(3,4,5-trimethoxycinnamoyl) 1-piperazinyl]1-(3,4-dimethoxy)phenyl 2-propanol hydrochloride hydrate], the LD50 in data set [1] (iv) is over 200 mg/kg. For the same compound, the change in vivo at 2.5 mg/kg was 13% in the data set on dogs (setting [9]), 34% with dogs (setting [6]), -26% in the data set with dogs (setting [7]) and -4% in the data set with dogs (setting [8]). Besides, the “Increase of the cardiac contractile force: duration” value with dogs (2.5 mg/kg/i.v.) came to 10 mn. Besides, the “Variation of the average arterial pressure: duration” value in the data set on dogs (2.5 mg/kg/i.v.) is listed as over 30 mn.
With `COc1cc(C=CC(=O)N2CCN(Cc3ccc(NC(C)=O)cc3)CC2)cc(OC)c1OC` [Compound 41], the LD50 in data set [1] (iv) is over 200 mg/kg. Besides, the change in vivo at 2.5 mg/kg with dogs (setting [9]) is 35%; in the data set on dogs (setting [7]) it was -36%; in the data set on dogs (setting [8]), -16%.
As for `COc1cc(C=CC(=O)N2CCN(CC(=O)c3ccc(OC)c4c3OCCO4)CC2)cc(OC)c1OC` [Compound 10], the LD50 in data set [1] (iv) is 180 mg/kg. Besides, the change in vivo at 0.625 mg/kg with dogs (setting [2]) is 9%; in the data set on dogs (setting [3]) it was 39%; with dogs (setting [4]) it was -7%; with dogs (setting [5]), 2%. Further, the change in vivo at 2.5 mg/kg with dogs (setting [9]) was 53%; in the data set with dogs (setting [6]) it was 46%; in the data set on dogs (setting [7]), -16%; with dogs (setting [8]) it was 12%. Moreover, the “Increase of the cardiac contractile force: duration” value in the data set with dogs (0.625 mg/kg/i.v.) was under 10 mn; with dogs (2.5 mg/kg/i.v.) it was 10 mn. Further, the “Variation of the average arterial pressure: duration” value in the data set with dogs (0.625 mg/kg/i.v.) is under 5 mn; with dogs (2.5 mg/kg/i.v.) it was over 30 mn. In addition, the “Variation of the cardiac frequency: duration” value is recorded as under 5 mn with dogs (0.625 mg/kg/i.v.) and over 30 mn in the data set on dogs (2.5 mg/kg/i.v.).
For `COc1ccc(OC)c(C(O)CN2CCN(C(=O)C=Cc3cc(OC)c(OC)c(OC)c3)CC2)c1` (stereo not shown) [Compound 90], in data set [1] (setting [10]), the mortality was 80%. Further, the change in vivo at 2.5 mg/kg is 42% in the data set with dogs (setting [9]), 15% with dogs (setting [6]), -11% in the data set on dogs (setting [7]) and 0% with dogs (setting [8]).
Regarding `COc1cc(C=CC(=O)N2CCN(CC(=O)c3ccc(OC)c(OC)c3OC)CC2)cc(OC)c1OC` [Compound 7], in data set [1] (setting [10]), the mortality amounted to 0%. Moreover, the change in vivo at 0.625 mg/kg in the data set with dogs (setting [2]) was 69%; with dogs (setting [3]), 277%; in the data set with dogs (setting [4]) it was -22%; with dogs (setting [5]), -2 to 15%. The change in vivo at 2.5 mg/kg was 51% with dogs (setting [9]), 416% with dogs (setting [6]), -35% in the data set with dogs (setting [7]) and -8 to 9% in the data set with dogs (setting [8]). The “Increase of the coronary flow: duration” value with dogs (0.625 mg/kg/i.v.) was under 5 mn; with dogs (2.5 mg/kg/i.v.), under 20 mn. The “Increase of the cardiac contractile force: duration” value in the data set with dogs (2.5 mg/kg/i.v.) was under 10 mn.
For the compound `COc1cc(C=CC(=O)N2CCN(CCc3cccc(O)c3)CC2)cc(OC)c1OC` [Compound 3], in data set [1] (iv), the LD50 is over 200 mg/kg. In addition, the change in vivo at 0.625 mg/kg in the data set on dogs (setting [2]) is 47%; with dogs (setting [3]), 26%; in the data set with dogs (setting [4]), -9%; with dogs (setting [5]) it was 0%. Moreover, the change in vivo at 2.5 mg/kg is 62% in the data set with dogs (setting [9]), 62% in the data set with dogs (setting [6]), -36% in the data set with dogs (setting [7]) and 7% in the data set with dogs (setting [8]). For the same compound, in the data set with dogs (0.625 mg/kg/i.v.), the “Increase of the cardiac contractile force: duration” value is listed as 30 mn. The “Increase of the coronary flow: duration” value in the data set on dogs (0.625 mg/kg/i.v.) turned out to be 5 mn. Moreover, in the data set with dogs (2.5 mg/kg/i.v.), the “Variation of the average arterial pressure: duration” value is over 30 mn.
In the case of `CNC(=O)Nc1ccc(C(O)CN2CCN(C(=O)C=Cc3cc(OC)c(OC)c(OC)c3)CC2)cc1` (stereo not shown) [Compound 95], in data set [1] (iv), the LD50 was over 200 mg/kg. In addition, the change in vivo at 2.5 mg/kg was 21% in the data set on dogs (setting [9]), 27% in the data set on dogs (setting [6]), -20% in the data set with dogs (setting [7]) and 8% with dogs (setting [8]). The “Increase of the cardiac contractile force: duration” value in the data set with dogs (2.5 mg/kg/i.v.) was determined as 10 mn.
In the case of `COc1cc(C=CC(=O)N2CCN(CCc3c[nH]c4ccccc34)CC2)cc(OC)c1OC` [Compound 105], the LD50 in data set [1] (iv) is over 200 mg/kg. The change in vivo at 2.5 mg/kg is 17% in the data set with dogs (setting [9]), 55% in the data set with dogs (setting [6]), -34% in the data set on dogs (setting [7]) and 0% with dogs (setting [8]). The “Variation of the average arterial pressure: duration” value in the data set with dogs (2.5 mg/kg/i.v.) was over 30 mn.
Consider `COc1cc(C=CC(=O)N2CCN(CC(=O)c3ccc4ccccc4c3)CC2)cc(OC)c1OC` [Compound 62], for which the LD50 in data set [1] (iv) was 45 mg/kg. Moreover, the change in vivo at 2.5 mg/kg with dogs (setting [9]) was 43%; in the data set on dogs (setting [7]), -14%; with dogs (setting [8]), 4%. Also, in the data set with dogs (2.5 mg/kg/i.v.), the “Increase of the cardiac contractile force: duration” value is given as over 30 mn. The “Variation of the average arterial pressure: duration” value in the data set on dogs (2.5 mg/kg/i.v.) is listed as 10 mn. Moreover, the “Variation of the cardiac frequency: duration” value with dogs (2.5 mg/kg/i.v.) is reported as 5 mn.
Consider `COc1cc(C=CC(=O)N2CCN(C3CCc4cc(O)c(O)cc4C3)CC2)cc(OC)c1OC` (stereo not shown) [Compound 108, 2-[4-(3,4,5-trimethoxycinnamoyl) 1-piperazinyl] 1,2,3,4-tetrahydro 6,7-dihydroxy naphthyl hydrate], for which the mortality in data set [1] (iv, at 200 mg/kg, read-out: LD 50 column: percentage in parentheses) is 20%. Also, the LD50 in data set [1] (iv) was found to be 200 mg/kg. Further, the change in vivo at 2.5 mg/kg is 44% with dogs (setting [9]), 29% in the data set with dogs (setting [6]), -20% with dogs (setting [7]) and 3% in the data set on dogs (setting [8]). Further, the “Variation of the average arterial pressure: duration” value with dogs (2.5 mg/kg/i.v.) is over 30 mn.
For `CNC(=O)Nc1ccc(CCN2CCN(C(=O)C=Cc3cc(OC)c(OC)c(OC)c3)CC2)cc1` [Compound 54], the LD50 in data set [1] (iv) was over 200 mg/kg. Also, the change in vivo at 2.5 mg/kg with dogs (setting [9]) is 48%; in the data set on dogs (setting [6]), 181%; in the data set on dogs (setting [7]), -9%; in the data set with dogs (setting [8]), 4%.
For `COc1ccc(OC)c(C(=O)CN2CCN(C(=O)C=Cc3cc(OC)c(OC)c(OC)c3)CC2)c1` [Compound 70] the same measures were 168 mg/kg, 50%, 27%, -21% and 5%.
